In patent US20110237538A1, “TREATMENT OF LYSOSOMAL STORAGE DISORDERS AND OTHER PROTEOSTATIC DISEASES” (SUMMIT CORPORATION PLC, priority 2008, published 2011):

Key:
Format in all cases: biochemical
[1] = system: N-acetyl-β-D-glucosaminidase (Bovine kidney); experiment: glycosidase assay with p-nitrophenyl substrates (Example 2); conditions: 10 μl of 5 mM iminosugar solution in 70 μl incubation mixture; 20° C.
Procedure: (§1) The assays were conducted as described by Watson et al. 1997, Phytochemistry 46: 255-259 using p-nitrophenyl-substrates. Assays were carried out in microtitre plates. Enzymes were assayed in 0.1M citric acid/0.2M di-sodium hydrogen phosphate (Mcllvaine) buffers at the optimum pH for the enzyme. All assays were carried out at 20° C. All enzymes and substrates were purchased from Sigma Aldrich Chemicals Limited. The incubation mixture consisted of 10 μl of enzyme solution, 10 μl of the iminosugars solution (made up in deionised water at 5 mM) and 50 μl of the appropriate 5 mM p-nitrophenyl substrate made up in McIlvaine buffer at the optimum pH for the enzyme. The reactions were stopped with 0.4M glycine (pH 10.4) during the exponential phase of the reaction, which was determined at the beginning of the assay using blanks with water, which were incubated for a range of time periods to measure the reaction rate using 5 mM substrate solution. Absorbances were read at 405 nm. Water was substituted for the inhibitors in the blanks.
(§2) The glycosidases used were α-D-glucosidase (yeast), α-D-glucosidase (Bacillus sterothermophilus), α-D-glucosidase (rice), amyloglucosidase (Aspergillus niger), β-D-glucosidase (almond), α-D-galactosidase (green coffee beans), β-D-galactosidase (bovine liver), α-L-fucosidase (bovine kidney), α-D-mannosidase (Jack bean), β-D-mannosidase (Cellullomonas fimi), Naringinase (Penicillium decumbens), N-acetyl-β-D-glucosaminidase (Bovine kidney), N-acetyl-β-D-glucosaminidase (Aspergillus oryzae) and N-acetyl-β-D-glucosaminidase (Jack bean)

[2] = biological target: T1, α-D-galactosidase (green coffee beans) (Coffea arabica, UniProt Q42656); experiment: as above; conditions: 10 μl of 5 mM iminosugar solution in 70 μl incubation mixture; 20° C.; read-out: Promotion of glycosidase activity: α-D-galactosidase (Green coffee bean)
T1 construct: purchased Sigma Aldrich Chemicals Limited
T1 sequence (Q42656 16-378): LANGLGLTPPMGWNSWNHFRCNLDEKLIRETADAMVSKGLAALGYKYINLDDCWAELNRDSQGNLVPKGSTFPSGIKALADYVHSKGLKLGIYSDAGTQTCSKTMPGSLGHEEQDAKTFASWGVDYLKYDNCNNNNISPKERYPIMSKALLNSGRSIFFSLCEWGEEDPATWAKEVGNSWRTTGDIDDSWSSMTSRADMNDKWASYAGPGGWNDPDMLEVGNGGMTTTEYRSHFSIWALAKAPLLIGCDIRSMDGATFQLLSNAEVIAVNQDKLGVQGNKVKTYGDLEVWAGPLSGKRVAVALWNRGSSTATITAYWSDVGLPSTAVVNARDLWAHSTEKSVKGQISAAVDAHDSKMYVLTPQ
Procedure: as §1, §2

[3] = system: α-D-glucosidase (Bacillus sterothermophilus); experiment: as above; conditions: 10 μl of 5 mM iminosugar solution in 70 μl incubation mixture; 20° C.
Procedure: as §1, §2

[4] = biological target: T2, Jack bean α-D-mannosidase (Canavalia ensiformis, UniProt C0HJB3); experiment: α-mannosidase activity assay with p-nitrophenyl-α-D-mannopyranoside (Example 1)
T2 construct: purchased Sigma M7257
T2 sequence (C0HJB3 1-981): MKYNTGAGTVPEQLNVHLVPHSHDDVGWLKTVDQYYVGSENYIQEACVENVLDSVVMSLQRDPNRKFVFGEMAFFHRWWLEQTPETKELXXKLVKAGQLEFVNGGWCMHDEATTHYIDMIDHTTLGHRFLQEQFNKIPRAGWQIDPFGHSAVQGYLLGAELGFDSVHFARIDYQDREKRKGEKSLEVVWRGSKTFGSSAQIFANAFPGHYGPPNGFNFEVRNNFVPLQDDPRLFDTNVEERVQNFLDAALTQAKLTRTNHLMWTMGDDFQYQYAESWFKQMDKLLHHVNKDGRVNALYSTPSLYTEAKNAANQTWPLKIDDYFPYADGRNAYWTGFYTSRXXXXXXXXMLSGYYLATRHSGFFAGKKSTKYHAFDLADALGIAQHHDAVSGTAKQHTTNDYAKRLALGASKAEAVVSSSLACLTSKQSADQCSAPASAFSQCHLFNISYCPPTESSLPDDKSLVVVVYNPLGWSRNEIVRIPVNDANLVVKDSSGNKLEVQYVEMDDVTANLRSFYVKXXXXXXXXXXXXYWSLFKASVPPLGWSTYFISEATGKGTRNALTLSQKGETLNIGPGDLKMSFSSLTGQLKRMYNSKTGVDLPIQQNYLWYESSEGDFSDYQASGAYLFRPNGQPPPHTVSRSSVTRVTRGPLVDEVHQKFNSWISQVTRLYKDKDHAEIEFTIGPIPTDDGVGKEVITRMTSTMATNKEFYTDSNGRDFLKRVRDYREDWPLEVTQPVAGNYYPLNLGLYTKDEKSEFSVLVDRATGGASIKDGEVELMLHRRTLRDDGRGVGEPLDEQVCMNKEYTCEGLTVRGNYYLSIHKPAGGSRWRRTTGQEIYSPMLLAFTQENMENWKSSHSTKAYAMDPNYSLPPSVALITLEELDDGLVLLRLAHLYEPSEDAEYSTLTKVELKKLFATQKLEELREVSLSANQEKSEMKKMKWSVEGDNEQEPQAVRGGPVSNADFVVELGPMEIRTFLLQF
Procedure: Solutions of 0.2M Mcllvane buffer at pH 4.5 and 5 mM p-nitrophenyl-α-D-mannopyranoside (Sigma, N2127), dissolved in the buffer, were prepared. A solution of Jack bean α-D-mannosidase enzyme (Sigma, M7257, 22 Units/mg, 6.2 mg/ml.) was also prepared at 0.6 Units/ml in the buffer.
The incubation mixture consisted of 10 μl enzyme solution, 10 μl of 1 mg/ml aqueous iminosugar solution and 50 μl of 5 mM substrate made up in buffer at the optimum pH for the enzyme. The reactions were stopped by addition of 70 μl 0.4M glycine (pH 10.4) during the exponential phase of the reaction, which had been determined at the beginning using uninhibited assays in which water replaced inhibitor. Final absorbances were read at 405 nm using a Versamax microplate reader (Molecular Devices). Assays were carried out in triplicate, and the values given are means of the three replicates. Results were expressed as a percentage of uninhibited assays in which water replaced inhibitor.

[5] = biological target: T3, α-D-mannosidase (Jack bean) (Canavalia ensiformis, UniProt C0HJB3); experiment: glycosidase assay with p-nitrophenyl substrates (Example 2); conditions: 10 μl of 5 mM iminosugar solution in 70 μl incubation mixture; 20° C.
T3 construct: purchased Sigma Aldrich Chemicals Limited
T3 sequence (C0HJB3 1-981): T2 sequence (C0HJB3 1-981)
Procedure: as §1, §2

[6] = Jack Bean α-mannosidase, p-nitrophenyl-α-D-mannopyranoside as the substrate

| Compound | Promotion of glycosidase activity: N-acetyl-β-D-gluc (Bovine kidney) [1] | Promotion of glycosidase activity: α-D-glucosidase (Bacillus sterothermophilus) [3] | promotion of the mannosidase activity (in words) [4, 6] | Promotion of glycosidase activity: α-D-mannosidase (Jack bean) [5] | also measured |
| --- | --- | --- | --- | --- | --- |
| CC1(C)O[C@H]2[C@H](O)[C@@H](CO[Si](C)(C)C(C)(C)C)NC(=O)[C@H]2O1 [Compound 238, (3aS,6R,7R,7aS)-6-((tert-butyldimethylsilyloxy)methyl)-7-hydroxy-2,2-dimethyltetrahydro-[1,3]dioxolo[4,5-c]pyridin-4(3aH)-one] | 31 % increase in absorbance compared to the water controls | 127 % increase in absorbance compared to the water controls | – | – | activation at 714 µM [2]: 30% |
| CCCCCCCCCN1C[C@@H](O)[C@@H](O)[C@@H]1[C@@H](O)CO [Compound 316, (2S,3S,4R)-2-((R)-1,2-dihydroxyethyl)-1-nonylpyrrolidine-3,4-diol] | 94 % increase in absorbance compared to the water controls | 167 % increase in absorbance compared to the water controls | – | – | activation at 714 µM [2]: 42% |
| N[C@H]1[C@H](O)[C@H](O)[C@@H](O)[C@H](O)[C@@H]1CO [Compound A] | – | – | strong stimulation | – | stimulation ([4]; Compound A alone): 90% |
| CCOP(=O)(CCCN1C[C@@H](N=[N+]=[N-])C[C@H]1CO)OCC [Compound 291, diethyl 3-((2S,4S)-4-azido-2-(hydroxymethyl)pyrrolidin-1-yl)propylphosphonate] | – | 49 % increase in absorbance compared to the water controls | – | 43 % increase in absorbance compared to the water controls | – |
| CCCC[N@+]1([O-])C[C@H](O)[C@@H](O)[C@H]1CO [Compound 165, (1S,2R,3S,4S)-1-butyl-3,4-dihydroxy-2-(hydroxymethyl)pyrrolidine 1-oxide] | 76 % increase in absorbance compared to the water controls | 72 % increase in absorbance compared to the water controls | – | 43 % increase in absorbance compared to the water controls | – |
| CCCC[N+]1([O-])C[C@@H](O)[C@H](O)[C@H]1CO (stereo partly drawn) [Compound 95, (2R,3R,4R)-1-butyl-3,4-dihydroxy-2-(hydroxymethyl)pyrrolidine 1-oxide] | 46 % increase in absorbance compared to the water controls | 53 % increase in absorbance compared to the water controls | – | 86 % increase in absorbance compared to the water controls | activation at 714 µM [2]: 35% |
| O[C@H]1[C@H]2[C@H](O)CCCN2C[C@H]1O [swainsonine, reference compound] | – | – | does not cause promotion | – | inhibition of the mannosidase (in words) [4, 6]: total inhibition of the promoted activity |
| CCCC[N@@+]1([O-])C[C@@H](O)[C@H](O)[C@@H]1CO [Compound 178, (1R,2S,3R,4R)-1-butyl-3,4-dihydroxy-2-(hydroxymethyl)pyrrolidine 1-oxide] | 85 % increase in absorbance compared to the water controls | 161 % increase in absorbance compared to the water controls | – | 35 % increase in absorbance compared to the water controls | – |
| CN1C[C@H](O)C(O)[C@@H](O)C1 [Compound 299, (3S,5S)-1-methylpiperidine-3,4,5-triol] | – | – | – | 35 % increase in absorbance compared to the water controls | – |
| O=C1N[C@H]([C@H](O)CO)[C@H](OCc2ccccc2)[C@@H]1OCc1ccccc1 [Compound 242, (3S,4S,5R)-3,4-bis(benzyloxy)-5-((S)-1,2-dihydroxyethyl)pyrrolidin-2-one] | 59 % increase in absorbance compared to the water controls | 65 % increase in absorbance compared to the water controls | – | – | activation at 714 µM [2]: 38% |
| CCCCN1C[C@@H](N)C[C@H]1CO [Compound 292, ((2S,4S)-4-amino-1-butylpyrrolidin-2-yl)methanol] | – | – | – | 34 % increase in absorbance compared to the water controls | – |
| O=C1NC[C@@H](O)[C@@H](O)[C@]1(O)CO [Compound 170, (3R,4R,5R)-3,4,5-trihydroxy-3-(hydroxymethyl)piperidin-2-one] | – | – | promotion of the mannosidase activity | – | – |
| OC[C@H](O)[C@@H]1NC[C@@](O)(CO)[C@H]1O [Compound 200, (2S,3S,4R)-2-((R)-1,2-dihydroxyethyl)-4-(hydroxymethyl)pyrrolidine-3,4-diol] | – | – | promotion of the mannosidase activity | – | – |
| O=C(O)[C@@]1(O)CNC[C@@H](O)[C@H]1O [Compound 87, (3R,4R,5R)-3,4,5-trihydroxypiperidine-3-carboxylic acid] | – | – | promotion of the mannosidase activity | – | – |
